Kd data for two compounds are collected here from PMC2783604 (Synapse (New York, N.Y.), 2009).

One experiment has as its target dopamine D3 receptor (Macaca mulatta, UniProt F6U709). Briefly: radioligand saturation binding by quantitative autoradiography on brain sections.
Experiment [1] addresses dopamine D3 receptor (rD3) (Rattus norvegicus, UniProt P19020). Briefly: radioligand saturation binding.
Experiment [2] concerns the target dopamine D3 receptor (hD3) (Homo sapiens, UniProt P35462). Briefly: radioligand saturation binding.

One may read the Kd as the free concentration of one partner at which half of the binding sites on the other are occupied at equilibrium, for simple one-to-one binding. Read a high Kd as lower affinity.

Chain of dopamine D3 receptor (F6U709 1-400): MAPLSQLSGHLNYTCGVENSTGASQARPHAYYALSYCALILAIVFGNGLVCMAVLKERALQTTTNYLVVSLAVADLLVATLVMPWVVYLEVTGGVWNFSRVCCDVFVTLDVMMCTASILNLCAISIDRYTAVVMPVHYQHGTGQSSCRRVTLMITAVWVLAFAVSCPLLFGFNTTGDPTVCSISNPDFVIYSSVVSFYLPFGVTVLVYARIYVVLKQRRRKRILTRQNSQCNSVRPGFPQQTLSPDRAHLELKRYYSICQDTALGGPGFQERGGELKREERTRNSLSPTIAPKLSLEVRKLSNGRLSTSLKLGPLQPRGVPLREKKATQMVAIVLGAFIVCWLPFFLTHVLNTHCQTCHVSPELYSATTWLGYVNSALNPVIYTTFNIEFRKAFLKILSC
Chain of dopamine D3 receptor (rD3) (P19020 whole entry): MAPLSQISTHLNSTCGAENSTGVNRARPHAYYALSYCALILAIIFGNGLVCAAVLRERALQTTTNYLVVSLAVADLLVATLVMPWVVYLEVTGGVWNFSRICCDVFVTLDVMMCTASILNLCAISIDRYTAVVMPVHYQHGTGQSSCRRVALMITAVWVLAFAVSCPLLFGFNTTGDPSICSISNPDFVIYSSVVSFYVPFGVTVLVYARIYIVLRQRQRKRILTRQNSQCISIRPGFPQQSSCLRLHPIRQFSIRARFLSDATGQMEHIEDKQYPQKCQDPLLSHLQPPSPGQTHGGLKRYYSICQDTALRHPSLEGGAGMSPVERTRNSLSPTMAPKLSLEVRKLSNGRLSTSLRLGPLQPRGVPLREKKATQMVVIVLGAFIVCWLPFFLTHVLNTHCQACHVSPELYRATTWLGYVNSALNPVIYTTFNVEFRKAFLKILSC
Chain of dopamine D3 receptor (hD3) (P35462 whole entry): as the sequence (F6U709 1-400) above, with P3S, V17A, V101I, T151A, R247P, R281K counted along it

On to `COc1ccccc1N1CCN(CCCCNC(=O)c2ccc(N(C)C)cc2)CC1` [WC-10, 4-(Dimethylamino)-N-(4-(4-(2-methoxyphenyl)piperazin-1-yl)butyl)benzamide], for which the Kd at dopamine D3 receptor was 1.1 nM.

Take `CCN1CCC[C@H]1CNC(=O)c1c(O)c(Cl)cc(Cl)c1OC` [[^3H]raclopride]: the Kd was determined as 17.1 ± 1.7 nM in experiment [1] and 18 ± 1 nM in experiment [2].
